GI50 and TGI data for 8 compounds are collected here from PubChem BioAssay (NCI).

Among the test systems are ACHN renal; EKVX NSCLC; HT29 colon; MALME-3M melanoma; SR leukemia; A549 NSCLC; COLO 205 colon; LOX IMVI melanoma; SNB-75 CNS; HOP-92 NSCLC.
Common to all, as to assay: inhibition of tumour cell growth, NCI panel, 48 h

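Following 48 hours of exposure in 96-well plates, responses at five concentrations were used to interpolate endpoints linearly. Abbreviation: GI50, concentration required for 50% inhibition of growth. Definition used: TGI = concentration required for complete inhibition of growth.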 *1 amine or outer side, *2 acyl side, *3 side chain or, on linkers, in order; H or OH if unused. Where a SMILES comes first, the peptide text is derived from it. Bridges are numbered along the chain shown (N, C = ends). [ ]: non-standard residue; d: D form. The star is where a group is joined. Phe(3-Me) = Cc1cccc(C[C@H](N)C(=O)O)c1; NH(4-Cl-2-F-phenyl) = Fc1cc(Cl)ccc1N*; Pro(4R-Me) = C[C@H]1CN[C@H](C(=O)O)C1; Hyp = O=C(O)[C@@H]1C[C@@H](O)CN1; aThr = C[C@H](O)[C@H](N)C(=O)O; Pip = O=C(O)[C@@H]1CCCCN1; CO = O=C([*:1])[*:2]

`CCc1ccc(CCC(=O)Nc2ncc(Cc3ccccc3)s2)o1`: the GI50 is 5.68 µM in the experiment with ACHN renal; 4.6 µM in the experiment on EKVX NSCLC; 1.02 µM with HT29 colon; 18.3 µM with MALME-3M melanoma; 0.444 µM in the experiment on SR leukemia; 4.47 µM in the experiment with A549 NSCLC. In addition, the GI50 with COLO 205 colon was 2.28 µM; with LOX IMVI melanoma it was 6 µM; in the experiment on SNB-75 CNS, 1.24 µM; in the experiment on HOP-92 NSCLC, 18.3 µM. Besides, the TGI in the experiment with ACHN renal, with EKVX NSCLC, in the experiment on HT29 colon, with MALME-3M melanoma, in the experiment on SR leukemia and in the experiment on A549 NSCLC was more than 100 µM throughout. Moreover, the TGI in the experiment with COLO 205 colon, in the experiment with LOX IMVI melanoma, in the experiment on SNB-75 CNS and in the experiment with HOP-92 NSCLC was more than 100 µM in each case.

For the compound `O=C1C(Cl)=C(N2CCOCC2)C(=O)c2ccccc21`, the GI50 in the experiment with ACHN renal is 1.99 µM; with EKVX NSCLC it was 3.75 µM; with HT29 colon, 5.94 µM; with MALME-3M melanoma, 2.55 µM; in the experiment on SR leukemia it was 2.77 µM; with A549 NSCLC, 17.8 µM. For the same compound, the GI50 was 14.2 µM in the experiment on COLO 205 colon, 3.01 µM in the experiment on LOX IMVI melanoma, 14.2 µM in the experiment with SNB-75 CNS and 1.52 µM in the experiment with HOP-92 NSCLC. The TGI was 3.48 µM in the experiment on ACHN renal; 14.3 µM in the experiment with EKVX NSCLC; 21.8 µM in the experiment on HT29 colon; 4.85 µM in the experiment with MALME-3M melanoma; 7.87 µM with SR leukemia; 32.3 µM in the experiment on A549 NSCLC. Also, the TGI was determined as 27.8 µM in the experiment on COLO 205 colon, 13.6 µM with LOX IMVI melanoma, 27.8 µM in the experiment with SNB-75 CNS and 3 µM in the experiment on HOP-92 NSCLC.

With `Cc1cccc(C[C@H](NC(=O)Nc2ccc(Cl)cc2F)C(=O)N[C@@H]2C(=O)N3C[C@H](O)C[C@H]3C(=O)N3CCCC[C@H]3C(=O)N[C@@H](C)C(=O)N3C[C@H](C)C[C@H]3C(=O)O[C@H]2C)c1` ({NH(4-Cl-2-F-phenyl)-CO}-[Phe(3-Me)][aThr][Hyp][Pip]A[Pro(4R-Me)]; ester 2-C), the GI50 with ACHN renal is 2.11 µM; with EKVX NSCLC, 0.86 µM; in the experiment on HT29 colon, 0.547 µM; in the experiment on MALME-3M melanoma it was 0.553 µM; in the experiment on SR leukemia, 0.546 µM; with A549 NSCLC, 0.505 µM. The GI50 is 0.344 µM in the experiment on COLO 205 colon, 0.67 µM in the experiment on LOX IMVI melanoma, 0.544 µM in the experiment with SNB-75 CNS and 0.525 µM with HOP-92 NSCLC. In addition, the TGI came to 6.16 µM in the experiment on ACHN renal; 8.04 µM in the experiment on EKVX NSCLC; 3.06 µM in the experiment on HT29 colon; 2.19 µM in the experiment with MALME-3M melanoma; 3.55 µM in the experiment on SR leukemia; 12.1 µM with A549 NSCLC. For the same compound, the TGI was 1.36 µM in the experiment with COLO 205 colon, 2.16 µM with LOX IMVI melanoma, 4.8 µM in the experiment on SNB-75 CNS and 3.14 µM with HOP-92 NSCLC.

Take `O=C(CNC(=O)c1cccc2ccccc12)Nc1ccccc1Oc1ccccc1`: the GI50 in the experiment with ACHN renal was 0.833 µM; with EKVX NSCLC it was 0.778 µM; in the experiment with HT29 colon it was 0.29 µM; in the experiment on SR leukemia, 0.0825 µM; in the experiment with A549 NSCLC, 0.459 µM; with COLO 205 colon, 0.308 µM. The GI50 is 0.307 µM in the experiment on LOX IMVI melanoma, 0.231 µM in the experiment with SNB-75 CNS and 2.22 µM in the experiment with HOP-92 NSCLC. The TGI in the experiment on ACHN renal was more than 10 µM; in the experiment on EKVX NSCLC, more than 10 µM; in the experiment on HT29 colon, 1.07 µM; with MALME-3M melanoma it was more than 10 µM; in the experiment with SR leukemia, more than 10 µM; in the experiment on A549 NSCLC it was more than 10 µM. For the same compound, the TGI in the experiment on COLO 205 colon was 1.14 µM; with LOX IMVI melanoma it was more than 10 µM; with SNB-75 CNS, more than 10 µM; with HOP-92 NSCLC, more than 10 µM.

In the case of `CCOc1cc2ncc(C#N)c(Nc3ccc(F)c(Cl)c3)c2cc1NC(=O)/C=C/CN(C)C`, the GI50 with ACHN renal was 0.0232 µM; in the experiment on EKVX NSCLC it was 0.0187 µM; with HT29 colon, 0.827 µM; with MALME-3M melanoma it was 0.36 µM; in the experiment with SR leukemia, 0.414 µM; with A549 NSCLC, 0.324 µM. The GI50 in the experiment with COLO 205 colon was 1.33 µM; in the experiment with LOX IMVI melanoma, 0.761 µM; in the experiment on SNB-75 CNS, 0.228 µM; in the experiment with HOP-92 NSCLC it was 0.254 µM. For the same compound, the TGI in the experiment on ACHN renal is 1.8 µM; with EKVX NSCLC, more than 6.51 µM; in the experiment with HT29 colon, more than 5.95 µM; in the experiment with MALME-3M melanoma, 1.87 µM; in the experiment with SR leukemia, 2.4 µM; with A549 NSCLC, more than 9.66 µM. Besides, the TGI was 2.83 µM with COLO 205 colon, 2.14 µM in the experiment with LOX IMVI melanoma, more than 3.71 µM in the experiment on SNB-75 CNS and more than 4.39 µM in the experiment with HOP-92 NSCLC.

Regarding `CC(=O)Oc1cccc2c1C(=O)C(Br)(Br)CCC2`, the TGI in the experiment on ACHN renal is 12.8 µM; in the experiment with EKVX NSCLC it was 26.7 µM; with HT29 colon it was 14 µM; with MALME-3M melanoma, 5.59 µM; with SR leukemia, 8.19 µM; with A549 NSCLC it was 40 µM. The TGI is 17.2 µM with COLO 205 colon, 6.26 µM in the experiment on LOX IMVI melanoma, 16.5 µM in the experiment with SNB-75 CNS and 10.4 µM with HOP-92 NSCLC.

For `N#CSCC1CC(O)(c2ccccc2)C(c2ccccc2)C(c2ccc(F)cc2)O1` (centres undefined), the GI50 in the experiment on ACHN renal is 3.42 µM; in the experiment with EKVX NSCLC, 2.46 µM; in the experiment on HT29 colon it was 2.61 µM; with MALME-3M melanoma, 2.08 µM; in the experiment on SR leukemia, 0.344 µM; in the experiment with A549 NSCLC, 8.38 µM. For the same compound, the GI50 in the experiment on COLO 205 colon was 3.13 µM; in the experiment with LOX IMVI melanoma, 1.64 µM; in the experiment with SNB-75 CNS it was 7.63 µM; with HOP-92 NSCLC, 2.13 µM. Moreover, the TGI with ACHN renal is 11.4 µM; in the experiment on EKVX NSCLC it was 7.58 µM; in the experiment on HT29 colon, 11.6 µM; with MALME-3M melanoma, 5.02 µM; in the experiment with SR leukemia, 3.02 µM; with A549 NSCLC, 40.5 µM. For the same compound, the TGI with COLO 205 colon is 9.97 µM; in the experiment with LOX IMVI melanoma, 3.18 µM; in the experiment with SNB-75 CNS, 45.2 µM; in the experiment with HOP-92 NSCLC, 7.88 µM.

Consider `Cc1c(C(=O)CC(=O)C(=O)Nc2cccc(C(F)(F)F)c2)[n+](=O)c2ccccc2n1[O-]`, for which the TGI in the experiment on ACHN renal was found to be 15.9 µM; with EKVX NSCLC it was 20.3 µM; in the experiment on HT29 colon, 17.8 µM; in the experiment with MALME-3M melanoma it was 13.3 µM; in the experiment on SR leukemia, 8.82 µM; with A549 NSCLC, 32.1 µM. Further, the TGI in the experiment on COLO 205 colon is 13.4 µM; in the experiment on LOX IMVI melanoma it was 12.7 µM; in the experiment with SNB-75 CNS it was 7.86 µM; in the experiment on HOP-92 NSCLC, 38.9 µM.
